PMC6759758, “Cofactor Selectivity in Methylmalonyl Coenzyme A Mutase, a Model Cobamide-Dependent Enzyme” (mBio, 2019)
Like-named read-outs stand apart in the source and are kept apart here.

Key:
[1] = biological target: T1, SmMCM (Rhizobium meliloti, UniProt O86028); assay: Filtration binding assay; parameters: species or system Sinorhizobium meliloti; conditions: 10 μM cobamide, 15 μM SmMCM
T1 construct: made in house; host or cells: E. coli BL21(DE3)pLysS
T1 sequence (O86028 2-712): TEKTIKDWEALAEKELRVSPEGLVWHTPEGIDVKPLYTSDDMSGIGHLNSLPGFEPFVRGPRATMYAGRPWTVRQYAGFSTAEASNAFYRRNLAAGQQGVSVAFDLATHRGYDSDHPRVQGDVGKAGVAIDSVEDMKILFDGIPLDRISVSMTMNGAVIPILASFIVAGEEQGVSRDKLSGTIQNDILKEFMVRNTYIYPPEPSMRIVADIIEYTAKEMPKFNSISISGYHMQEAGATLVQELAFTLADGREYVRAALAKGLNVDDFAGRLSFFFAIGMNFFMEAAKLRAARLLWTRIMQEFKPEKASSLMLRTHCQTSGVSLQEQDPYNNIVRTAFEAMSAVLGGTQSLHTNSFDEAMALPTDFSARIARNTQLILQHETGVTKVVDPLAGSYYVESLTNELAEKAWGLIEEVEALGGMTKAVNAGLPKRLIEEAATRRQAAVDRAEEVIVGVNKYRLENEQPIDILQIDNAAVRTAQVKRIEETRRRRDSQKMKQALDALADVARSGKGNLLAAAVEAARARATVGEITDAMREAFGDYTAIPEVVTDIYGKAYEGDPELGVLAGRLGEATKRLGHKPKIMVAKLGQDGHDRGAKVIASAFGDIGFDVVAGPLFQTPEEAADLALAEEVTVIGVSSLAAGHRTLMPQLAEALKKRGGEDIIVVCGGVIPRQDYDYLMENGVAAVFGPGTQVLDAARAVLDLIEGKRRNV
Description: Cobamides (10 μM) with and without MCM (15 μM) were incubated in 100 mM Tris, 50 mM phosphate, pH 7.5, at 30°C for 40 min, transferred to Nanosep 10K Omega centrifugal devices (Pall Corporation), and centrifuged for 5 min at 13,900 × g to separate unbound cobamides from enzyme-bound cobamides. The UV-Vis spectra of the filtrates were recorded on a BioTek Synergy 2 plate reader.

[2] = biological target: T2, SmMCM (methylmalonyl-CoA mutase from S. meliloti) (Rhizobium meliloti, UniProt O86028); assay: biochemical; type: binding, Sinorhizobium meliloti; conditions: for binding to SmMCM detected by fluorescence quench (in words): low-micromolar / micromolar concentrations
T2 construct: made in house; host or cells: E. coli BL21(DE3)pLysS
T2 sequence (O86028 2-712): T1 sequence (O86028 2-712)
Description: (§1) All steps involving cobamides were conducted in the dark. The plate was centrifuged for 1 min at 3,800 rpm to level the surface of the liquid in each well. The plate was then incubated for 40 min at 30°C to allow binding, with a brief shaking step after 30 min. […] Following incubation, fluorescence emission at 340 nm (5-nm slit width) was measured upon excitation at 282 nm (5-nm slit width) using a Tecan Infinite M1000 Pro plate reader. Fluorescence, normalized to the initial value, was plotted as a function of cobamide concentration, and fitted to the following equation ([134]): F/F0=1+ΔFmax/F0([E]+[L]+Kd)−([E]+[L]+Kd)^2−4[E][L]/2[E] where F is fluorescence, F0 is initial fluorescence, [E] is total enzyme concentration, [L] is total ligand concentration, and Kd is the binding dissociation constant.

[3] = tested on: MCM; parameters: method as in PMID 10563814; conditions: cited from earlier work
[4] = biological target: T3, EcMCM (E. coli MCM) (Escherichia coli, UniProt P27253); assay: Fluorescence binding assay, EcMCM; conditions: read-out: Kd EcMCM; fitted curve, error = standard error of the curve fit
T3 construct: 6xHis (N); made in house; host or cells: E. coli BL21(DE3)
T3 sequence (P27253 whole entry): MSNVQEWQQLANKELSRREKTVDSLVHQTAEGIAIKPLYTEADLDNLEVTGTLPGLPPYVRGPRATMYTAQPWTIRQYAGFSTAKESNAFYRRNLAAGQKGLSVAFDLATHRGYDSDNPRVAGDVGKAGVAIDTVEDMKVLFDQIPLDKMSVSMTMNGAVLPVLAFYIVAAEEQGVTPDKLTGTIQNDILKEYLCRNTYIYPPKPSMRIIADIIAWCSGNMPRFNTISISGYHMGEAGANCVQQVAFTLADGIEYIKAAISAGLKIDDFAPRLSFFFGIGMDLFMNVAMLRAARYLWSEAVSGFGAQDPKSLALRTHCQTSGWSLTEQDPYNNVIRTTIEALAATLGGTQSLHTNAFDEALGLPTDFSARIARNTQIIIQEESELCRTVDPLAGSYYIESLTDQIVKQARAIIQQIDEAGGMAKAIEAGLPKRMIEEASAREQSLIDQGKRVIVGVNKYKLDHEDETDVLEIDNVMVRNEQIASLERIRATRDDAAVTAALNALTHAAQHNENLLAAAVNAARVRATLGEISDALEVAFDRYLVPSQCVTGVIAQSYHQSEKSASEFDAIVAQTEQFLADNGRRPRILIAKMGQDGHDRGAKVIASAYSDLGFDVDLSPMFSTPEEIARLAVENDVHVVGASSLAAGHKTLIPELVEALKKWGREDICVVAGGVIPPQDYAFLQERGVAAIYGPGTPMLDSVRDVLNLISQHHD
Description: as §1

[5] = biological target: VpMCM (V. parvula MCM) (Veillonella parvula, UniProt A0A124EFR6); assay: Fluorescence binding assay, VpMCM; conditions: fitted curve, error = standard error of the curve fit; equimolar α and β subunits
VpMCM (V. parvula MCM), sequence (A0A124EFR6 entry or part of it): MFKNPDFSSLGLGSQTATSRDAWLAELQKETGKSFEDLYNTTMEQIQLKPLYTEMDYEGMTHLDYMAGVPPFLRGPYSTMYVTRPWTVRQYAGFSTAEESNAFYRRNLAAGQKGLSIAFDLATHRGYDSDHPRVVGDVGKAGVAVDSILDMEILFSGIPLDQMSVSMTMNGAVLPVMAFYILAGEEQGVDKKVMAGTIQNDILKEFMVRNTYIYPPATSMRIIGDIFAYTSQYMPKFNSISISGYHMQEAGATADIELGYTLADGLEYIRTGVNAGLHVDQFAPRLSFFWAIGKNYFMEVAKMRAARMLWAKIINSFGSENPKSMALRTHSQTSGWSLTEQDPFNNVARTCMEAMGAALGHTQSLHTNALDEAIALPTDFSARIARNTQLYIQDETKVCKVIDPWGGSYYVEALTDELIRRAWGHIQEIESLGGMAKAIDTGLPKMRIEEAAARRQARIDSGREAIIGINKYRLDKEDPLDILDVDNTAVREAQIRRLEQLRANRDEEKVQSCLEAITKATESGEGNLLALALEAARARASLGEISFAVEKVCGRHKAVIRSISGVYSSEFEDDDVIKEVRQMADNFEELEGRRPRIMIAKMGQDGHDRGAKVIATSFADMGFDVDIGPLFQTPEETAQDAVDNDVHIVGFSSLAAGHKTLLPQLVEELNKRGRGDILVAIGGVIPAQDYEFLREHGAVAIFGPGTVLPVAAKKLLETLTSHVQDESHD
Description: The α subunit of VpMCM (encoded by Vpar_RS09005) was expressed with an N-terminal 6×His tag from the pET-Duet expression vector in E. coli BL21(DE3). Protein expression was induced with 520 μM IPTG for 6 h at 30°C. The protein was batch purified by nickel affinity and subsequently purified by FPLC using a HiTrapQ column with an NaCl gradient from 50 to 500 mM in […], pH 8.0, 10% glycerol. The β subunit of VpMCM (encoded by Vpar_RS09000) was expressed separately with an N-terminal 6×His tag from the pET-Duet expression vector in E. coli BL21(DE3). […] Purified protein was dialyzed into 25 mM Tris-HCl, pH 8.0, 300 mM NaCl, 10% glycerol, and 1 mM β-mercaptoethanol. Concentration of pure α and β subunits (Fig. S7) was determined by absorbance at 280 nm (A280) using the theoretically calculated extinction coefficients 75,290 M^−1 cm^−1 and 74,260 M^−1 cm^−1, respectively ([125]). Equimolar amounts of α and β subunits were combined during the setup of fluorescence binding assays.
as §1

[6] = biological target: T4, SmMCM (Sinorhizobium meliloti MCM) (Rhizobium meliloti, UniProt O86028); assay: Thiokinase-coupled spectrophotometric MCM activity assay; type: biochemical; conditions: SmMCM 50 nM reconstituted with 2 μM cobamide; (R)-methylmalonyl-CoA to succinyl-CoA, steady state, 30°C
T4 construct: made in house; host or cells: E. coli BL21(DE3)pLysS
T4 sequence (O86028 2-712): T1 sequence (O86028 2-712)
Description: Final concentrations of reagents in the assays were as follows: Tris-phosphate buffer (pH 7.5), 100 mM Tris, 50 mM phosphate; dithionitrobenzoate (DTNB), 400 μM; ADP, 1 mM; MgCl2, 10 mM; (R)-methylmalonyl-CoA, 0 to 4 mM; thiokinase, 5 μM; MCM, 50 nM; and cobamides, 2 μM.
Three separate mixes were prepared, all in 1× Tris-phosphate buffer: an assay mix containing DTNB, ADP, and MgCl2; a substrate mix containing (R)-methylmalonyl-CoA; and an enzyme mix containing thiokinase, MCM, and cobamides. All steps involving cobamides were conducted in the dark. The assay and enzyme mixes were prepared as a master mix and aliquoted into 96-well plates; substrate mixes were prepared in individual wells, in triplicate. All components were incubated at 30°C for 40 min to equilibrate temperature and allow prebinding of cobamides and MCM. After incubation, one replicate at a time, the substrate mix was added to the assay mix, followed by the enzyme mix. Absorbance at 412 nm (A412) was recorded immediately after addition of enzyme and for 1 to 3 min, every 3 s, on a BioTek Synergy 2 plate reader. The increase in A412 in reaction mixtures lacking substrate was subtracted from all readings, to account for reactivity of DTNB with thiols on protein surfaces.

[7] = tested on: MCM; parameters: method as in PMID 14235521; conditions: cited from earlier work
[8] = tested on: P. shermanii MCM; parameters: method as in PMID 11031263; conditions: cited from earlier work

Compound	binding to SmMCM in filtration-based assay [1]	binding to SmMCM detected by fluorescence quench (in words) [2]	Kd [4]	Kd [5]	MCM activity in S. meliloti bacteroids [7]	further results
5-Hydroxybenzimidazolylcobamide [Ado[5-OHBza]Cba]	little to no binding	no binding				
C/C1=C2/[N-][C@H]([C@H](CC(N)=O)[C@@]2(C)CCC(=O)NC[C@@H](C)O)[C@]2(C)N=C(/C(C)=C3N=C(/C=C4N=C1[C@@H](CCC(N)=O)C\4(C)C)[C@@H](CCC(N)=O)[C@]\3(C)CC(N)=O)[C@@H](CCC(N)=O)[C@]2(C)CC(N)=O.[CH2-][C@H]1O[C@@H](n2cnc3c(N)ncnc32)[C@H](O)[C@@H]1O.[Co+3] [Ado-cobinamide, adenosylcobinamide, reference compound]						Kd [2]: 800 ± 200 nM; support of MCM activity in vitro [3]: does not support MCM activity
C/C1=C2/[N-][C@H]([C@H](CC(N)=O)[C@@]2(C)CCC(=O)NC[C@@H](C)OP(=O)([O-])O[C@H]2[C@@H](O)[C@@H](n3cnc4cc(C)c(C)cc43)O[C@@H]2CO)[C@]2(C)N=C(/C(C)=C3N=C(/C=C4N=C1[C@@H](CCC(N)=O)C\4(C)C)[C@@H](CCC(N)=O)[C@]\3(C)CC(N)=O)[C@@H](CCC(N)=O)[C@]2(C)CC(N)=O.[CH2-][C@H]1O[C@@H](n2cnc3c(N)ncnc32)[C@H](O)[C@@H]1O.[Co+3] [AdoCbl, adenosylcobalamin, reference compound]			600 ± 100 nM	2.8 ± 0.6 µM	highest	Kd ([2]; SmMCM 0.2 μM, pH 7.5, 30°C, average and standard deviation for three or more independent experiments, n. d. = binding too weak to determine Kd): 30 ± 20 nM; kcat [6]: 26 ± 1 s⁻¹
C/C1=C2/[N-][C@H]([C@H](CC(N)=O)[C@@]2(C)CCC(=O)NC[C@@H](C)OP(=O)([O-])O[C@H]2[C@@H](O)[C@@H](n3cnc4ncnc(N)c43)O[C@@H]2CO)[C@]2(C)N=C(/C(C)=C3N=C(/C=C4N=C1[C@@H](CCC(N)=O)C\4(C)C)[C@@H](CCC(N)=O)[C@]\3(C)CC(N)=O)[C@@H](CCC(N)=O)[C@]2(C)CC(N)=O.[CH2-][C@H]1O[C@@H](n2cnc3c(N)ncnc32)[C@H](O)[C@@H]1O.[Co+3] [Ado[Ade]Cba, Adeninylcobamide]	did not bind to any significant extent	did not bind to any significant extent	1600 ± 400 nM	9 ± 4 µM	absent	
C/C1=C2/[N-][C@H]([C@H](CC(N)=O)[C@@]2(C)CCC(=O)NC[C@@H](C)OP(=O)([O-])OP(=O)([O-])OC[C@H]2O[C@@H](n3cnc4c(=O)[nH]c(N)nc43)[C@H](O)[C@@H]2O)[C@]2(C)N=C(/C(C)=C3N=C(/C=C4N=C1[C@@H](CCC(N)=O)C\4(C)C)[C@@H](CCC(N)=O)[C@]\3(C)CC(N)=O)[C@@H](CCC(N)=O)[C@]2(C)CC(N)=O.[CH2-][C@H]1O[C@@H](n2cnc3c(N)ncnc32)[C@H](O)[C@@H]1O.[Co] [adenosylcobinamide-GDP]						support of P. shermanii MCM activity compared to AdoCbl [8]: only slight catalytic impairment
